Data from patent publication US20260078135A1, “POLYCYCLIC QUINAZOLINES FOR INHIBITION OF ERBB2” (Enliven Inc., priority 2022, published 2026).

How the values were obtained:
[1] = target: T1, phosphorylated ERBB2 (pERBB2) (Homo sapiens, UniProt P04626); assay: Detection of phosphorylated ERBB2 (pERBB2) by ELISA in BT-474 cells; assay type: cell-based; conditions: four hour incubation
T1 construct: endogenous in cells; host or cells: BT-474
Description: BT-474 cells were seeded into a 96-well at 2.0*10^4 cells/100 μl/well. Compounds were dissolved and serially diluted in DMSO. The compounds were then were added, mixed, and incubated for four hours at 37° C., 5% CO2. Compounds were added using four-fold dilutions at final concentrations ranging from 10 μM to 0.01 nM. Following the four hour incubation with compounds, cell lysates were prepared. Plates were centrifuged for 5 μmin at 3000 RPM, and supernatant was removed from each well. Cells were washed 3 times by resuspension in 150 μl PBS, followed by centrifugation and removal of the supernatant, as above. 100 μl of cell lysis buffer (Boston BioProducts, cat #BP-115D) supplied with 1× complete ULTRA cocktail inhibitor (Thermo ScientificTM, cat #78443) was then added to the washed cells. Cells were incubated with lysis buffer for 1 hour at 4° C., and then stored at -80° C. Enzyme-linked immunosorbent assays (ELISA) were performed to measure phosphorylated ERBB2 levels. […] The next day, plates were washed with PBS+0.05% Tween20 (PBST). 150 μl of 5% BSA blocking solution was added for 1 hour at room temperature, with shaking. Plates were washed with PBST. Cell lysates were thawed and 100 μl of lysate was added to the ELISA plate. The plates were incubated for 2 hours at room temperature, with shaking. ELISA plates were then washed with PBST and 100 μl of an HRP-labeled detection antibody that binds phosphorylated tyrosine (R&D Systems, cat #841913) was added to each well. Plates were incubated for 1 hour at room temperature, with shaking. Plates were then washed with PBST, and 100 μl TMB substrate solution (R&D Systems, cat #DY999) was added. Plate were incubated in the dark for 20 minutes at room temperature. 50 μl of Stop solution (R&D Systems, cat #DY994) (50 μl) was added to each well and mixed. Optical density at 450 nm was read on an EnSpire plate reader (Perkin Elmer). The remaining kinase activity by calculated using the following formula: % Relative activity=100×([…]). The low and high control values (“LC” and “HC”) were generated from lysate from wells without cells or with cells treated with 0.1% DMSO, respectively.

[2] = target: T2, phosphorylated EGFR (pEGFR) (Homo sapiens, UniProt P00533); assay: Detection of phosphorylated EGFR (pEGFR) by AlphaLISA in EGF-stimulated A431 cells; assay type: cell-based; conditions: A431 cells (10% FBS), 4 hours incubation, EGF 30 ng/mL for 10 minutes
T2 construct: performed to measure phosphorylated EGFR levels using A431 cells (10% FBS); endogenous in cells; host or cells: A431
Description: Enzyme-linked immunosorbent assays (ELISA) were performed to measure phosphorylated EGFR levels using A431 cells (10% FBS). A431 (1.0*10^4 cells/40 μl/well) cells were seeded in 384 well. Compounds were dissolved in DMSO, serially diluted in DMSO and then were added, mixed, and incubated for 4 hours at 37° C., 5% C02. Following the 4-hours incubation, cells were stimulated for 10 minutes with EGF (Invitrogen, cat #PHG0311) at a final concentration of 30 ng/mL in the incubator. The media was aspirated and cells were lysed in 10 μL lysis buffer with protease and phosphatase inhibitors (PerkinElmer, cat #ALSU-PEGFR-A50K). The plates were placed on a shaker for 5 μminutes and then incubated for 30 min at 4° C. for complete lysis. The lysate was transferred to an Optiplate (Perkin Elmer, cat #6007290).
Acceptor mix (PerkinElmer, cat #ALSU-PEGFR-A50K) was prepared just before use and 5 μL was dispensed to all the wells, followed by a 1.5-2 h incubation at room temperature in dark. The donor mix (PerkinElmer, cat #ALSU-PEGFR-A50K) was prepared under low light conditions prior to use and 5 μl of donor mix was added to all the wells under subdued lighting or green filters. The plates were placed on a shaker for 5 μmin, sealed, and incubated overnight at room temperature in dark. Plates were read on the Envision (PerkinElmer) using standard AlphaLISA settings.
The percentage of inhibition on EGFR phosphorylation was calculated following equation: % Inhibition=100×(LumHC−LumSample)/(LumHC−LumLC). The low and high controls (LC/HC) are generated from lysate from wells with cells treated with DMSO or […] Staurosporine (BioAustralis, cat #BIA-S1086), […]. IC50 values were calculated by fitting the Curve using XLfit (v5.3.1.3), equation 201: Y=Bottom+(Top−Bottom)/(1+10^((Log IC50−X)*HillSlope)).

T2 sequence (P00533 25-1210): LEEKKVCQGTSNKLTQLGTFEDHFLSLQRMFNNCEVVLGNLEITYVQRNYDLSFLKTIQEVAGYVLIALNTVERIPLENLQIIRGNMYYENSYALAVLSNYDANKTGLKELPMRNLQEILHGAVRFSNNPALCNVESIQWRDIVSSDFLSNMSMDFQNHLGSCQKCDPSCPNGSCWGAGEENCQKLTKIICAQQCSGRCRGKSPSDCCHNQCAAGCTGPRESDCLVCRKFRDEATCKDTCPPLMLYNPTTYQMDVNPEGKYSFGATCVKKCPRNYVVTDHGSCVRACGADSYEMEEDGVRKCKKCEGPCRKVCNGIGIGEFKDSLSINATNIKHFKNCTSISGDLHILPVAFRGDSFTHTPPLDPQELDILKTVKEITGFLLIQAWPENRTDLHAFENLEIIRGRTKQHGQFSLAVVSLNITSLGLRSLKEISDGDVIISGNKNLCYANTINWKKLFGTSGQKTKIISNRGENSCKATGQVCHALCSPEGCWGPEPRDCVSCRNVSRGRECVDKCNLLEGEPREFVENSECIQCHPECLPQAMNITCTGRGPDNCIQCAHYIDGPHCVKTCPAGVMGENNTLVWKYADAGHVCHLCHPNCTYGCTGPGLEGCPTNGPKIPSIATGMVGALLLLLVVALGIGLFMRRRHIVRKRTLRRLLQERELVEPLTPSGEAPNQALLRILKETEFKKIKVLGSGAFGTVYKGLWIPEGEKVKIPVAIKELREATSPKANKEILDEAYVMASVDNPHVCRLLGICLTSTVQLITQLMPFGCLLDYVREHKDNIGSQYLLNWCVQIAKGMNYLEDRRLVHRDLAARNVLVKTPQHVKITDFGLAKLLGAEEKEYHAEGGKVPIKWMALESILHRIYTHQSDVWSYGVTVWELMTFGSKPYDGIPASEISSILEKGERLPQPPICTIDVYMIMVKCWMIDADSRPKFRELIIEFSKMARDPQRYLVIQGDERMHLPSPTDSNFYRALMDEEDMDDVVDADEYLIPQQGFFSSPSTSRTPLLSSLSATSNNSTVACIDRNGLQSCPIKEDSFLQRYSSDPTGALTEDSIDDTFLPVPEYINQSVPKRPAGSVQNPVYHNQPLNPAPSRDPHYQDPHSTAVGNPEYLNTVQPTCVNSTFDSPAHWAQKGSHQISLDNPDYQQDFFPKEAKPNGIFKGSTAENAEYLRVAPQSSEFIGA
T1 sequence (P04626 23-1255): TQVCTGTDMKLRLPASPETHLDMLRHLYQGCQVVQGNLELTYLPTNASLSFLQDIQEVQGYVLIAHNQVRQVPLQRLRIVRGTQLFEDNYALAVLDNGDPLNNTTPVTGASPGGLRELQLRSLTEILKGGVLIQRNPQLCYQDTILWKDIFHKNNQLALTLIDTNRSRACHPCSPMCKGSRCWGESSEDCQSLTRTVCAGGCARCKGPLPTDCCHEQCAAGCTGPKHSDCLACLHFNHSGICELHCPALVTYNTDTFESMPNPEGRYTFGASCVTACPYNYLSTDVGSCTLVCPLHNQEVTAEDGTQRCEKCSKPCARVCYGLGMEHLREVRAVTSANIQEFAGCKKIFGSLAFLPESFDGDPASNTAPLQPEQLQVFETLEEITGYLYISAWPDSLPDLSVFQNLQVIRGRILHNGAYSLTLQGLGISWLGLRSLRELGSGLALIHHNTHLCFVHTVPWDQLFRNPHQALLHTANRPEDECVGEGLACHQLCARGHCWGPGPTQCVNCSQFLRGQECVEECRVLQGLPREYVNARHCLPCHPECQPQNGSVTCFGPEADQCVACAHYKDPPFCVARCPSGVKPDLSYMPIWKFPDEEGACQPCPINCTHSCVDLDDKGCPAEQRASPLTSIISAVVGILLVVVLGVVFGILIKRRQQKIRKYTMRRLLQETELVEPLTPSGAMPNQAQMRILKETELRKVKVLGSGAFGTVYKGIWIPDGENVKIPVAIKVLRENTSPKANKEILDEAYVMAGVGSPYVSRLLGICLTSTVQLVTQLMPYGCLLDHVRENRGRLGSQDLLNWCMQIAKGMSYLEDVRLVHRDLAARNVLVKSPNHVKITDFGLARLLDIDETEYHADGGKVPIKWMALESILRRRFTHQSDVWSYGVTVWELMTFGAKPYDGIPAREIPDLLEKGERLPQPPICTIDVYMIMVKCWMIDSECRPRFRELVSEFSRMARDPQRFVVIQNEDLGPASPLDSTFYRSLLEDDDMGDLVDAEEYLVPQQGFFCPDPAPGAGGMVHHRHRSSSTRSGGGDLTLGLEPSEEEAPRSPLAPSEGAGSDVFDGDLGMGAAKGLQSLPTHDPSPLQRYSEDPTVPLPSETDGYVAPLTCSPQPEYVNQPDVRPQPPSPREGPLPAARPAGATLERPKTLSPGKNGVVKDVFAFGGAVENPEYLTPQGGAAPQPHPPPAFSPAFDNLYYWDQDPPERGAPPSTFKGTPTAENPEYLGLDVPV

Row | SMILES | IC50 [1] [nM] | IC50 [2] [nM]
1 | Cc1c(Oc2ccn3ncnc3c2)ccc(Nc2ncnc3ccc4c(c23)OC[C@H]2COCCN42)c1F [Compound 99, (R)—N-(4-([1,2,4]triazolo[1,5-a]pyridin-7-yloxy)-2-fluoro-3-methylphenyl)-6a,7,9,10-tetrahydro-6H-[1,4]oxazino[4′,3′:4,5][1,4]oxazino[2,3-f]quinazolin-4-amine] | 211 | > 10000
2 | Cc1cc(Nc2ncnc3ccc4c(c23)OC[C@@H]2CN4CCN2C)ccc1Oc1ccc2c(c1)ncn2C [Compound 54, (3S)-4-methyl-N-(3-methyl-4-((1-methyl-1H-benzo[d]imidazol-5-yl)oxy)phenyl)-3,4,5,6-tetrahydro-2H-3,7-methano[1,4,7]oxadiazonino[2,3-f]quinazolin-13-amine] | 82.1 | > 10000
3 | Cc1cc(Nc2ncnc3cc4c(cc23)N2CCN(C)C[C@H]2CO4)ccc1Oc1ccn2ncnc2c1 [Compound 58, (S)—N-(4-([1,2,4]triazolo[1,5-a]pyridin-7-yloxy)-3-methylphenyl)-3-methyl-1,2,3,4,4a,5-hexahydropyrazino[1′,2′:4,5][1,4]oxazino[3,2-g]quinazolin-11-amine] | 21.9 | > 10000
4 | Cc1cc(Nc2ncnc3cc4c(nc23)N2CCOC[C@H]2CO4)ccc1Oc1ccn2ncnc2c1 [Compound 67, (S)—N-(4-([1,2,4]triazolo[1,5-a]pyridin-7-yloxy)-3-methylphenyl)-1,2,4a,5-tetrahydro-4H-[1,4]oxazino[4,3-d]pyrimido[4′,5′:5,6]pyrido[3,2-b][1,4]oxazin-11-amine] | 46.4 | > 10000
5 | Cc1cc(Nc2ncnc3cc4c(nc23)N2CCNC[C@H]2CO4)ccc1Oc1ccc2c(c1)ncn2C [Compound 37, (S)—N-(3-methyl-4-((1-methyl-1H-benzo[d]imidazol-5-yl)oxy)phenyl)-1,2,3,4,4a,5-hexahydropyrazino[1,2-d]pyrimido[4′,5′:5,6]pyrido[3,2-b][1,4]oxazin-11-amine] | 77.6 | > 10000
6 | Cc1cc(Nc2ncnc3ccc4c(c23)OC[C@H]2CN4CCN2C)ccc1Oc1ccc2c(c1)ncn2C [Compound 56, (3R)-4-methyl-N-(3-methyl-4-((1-methyl-1H-benzo[d]imidazol-5-yl)oxy)phenyl)-3,4,5,6-tetrahydro-2H-3,7-methano[1,4,7]oxadiazonino[2,3-f]quinazolin-13-amine] | 127 | > 10000
7 | Fc1cc(Oc2ccn3ncnc3c2)ccc1Nc1ncnc2cc3c(nc12)N1CCOC[C@H]1CO3 [Compound 104, (S)—N-(4-([1,2,4]triazolo[1,5-a]pyridin-7-yloxy)-2-fluorophenyl)-1,2,4a,5-tetrahydro-4H-[1,4]oxazino[4,3-d]pyrimido[4′,5′:5,6]pyrido[3,2-b][1,4]oxazin-11-amine] | 495 | > 10000
8 | Cc1cc(Nc2ncnc3cc4c(c(F)c23)N2CCOC[C@H]2CO4)ccc1Oc1ccn2ncnc2c1 [Compound 105, (S)—N-(4-([1,2,4]triazolo[1,5-a]pyridin-7-yloxy)-3-methylphenyl)-12-fluoro-1,2,4a,5-tetrahydro-4H-[1,4]oxazino[4′,3′:4,5][1,4]oxazino[3,2-g]quinazolin-11-amine] | 225 | > 10000
9 | Cc1cc(Nc2ncnc3cc4c(nc23)N2CCN(C)C[C@H]2CO4)ccc1Oc1ccc2c(c1)ncn2C [Compound 38, (S)-3-methyl-N-(3-methyl-4-((1-methyl-1H-benzo[d]imidazol-5-yl)oxy)phenyl)-1,2,3,4,4a,5-hexahydropyrazino[1,2-d]pyrimido[4′,5′:5,6]pyrido[3,2-b][1,4]oxazin-11-amine] | 60.6 | > 10000
10 | Cc1cc(Nc2ncnc3cc4c(cc23)N2CCNC[C@H]2CO4)ccc1Oc1ccc2c(c1)ncn2C [Compound 61, (S)—N-(3-methyl-4-((1-methyl-1H-benzo[d]imidazol-5-yl)oxy)phenyl)-1,2,3,4,4a,5-hexahydropyrazino[1′,2′:4,5][1,4]oxazino[3,2-g]quinazolin-11-amine] | 118 | > 10000
11 | Cc1ccc(Oc2ccc(Nc3ncnc4cc5c(nc34)N3CCN(C)C[C@H]3CO5)cc2C)cn1 [Compound 73, (S)-3-methyl-N-(3-methyl-4-((6-methylpyridin-3-yl)oxy)phenyl)-1,2,3,4,4a,5-hexahydropyrazino[1,2-d]pyrimido[4′,5′:5,6]pyrido[3,2-b][1,4]oxazin-11-amine] | 198 | > 10000
12 | Cc1cc(Nc2ncnc3cc4c(nc23)N2CCNC[C@@H]2CO4)ccc1Oc1ccc2c(c1)ncn2C [Compound 39, (R)—N-(3-methyl-4-((1-methyl-1H-benzo[d]imidazol-5-yl)oxy)phenyl)-1,2,3,4,4a,5-hexahydropyrazino[1,2-d]pyrimido[4′,5′:5,6]pyrido[3,2-b][1,4]oxazin-11-amine] | 279 | > 10000
13 | Cc1cc(Nc2ncnc3cc4c(nc23)N2CCOC[C@H]2CO4)ccc1Oc1ccc2c(c1)ncn2C [Compound 107, (S)—N-(3-methyl-4-((1-methyl-1H-benzo[d]imidazol-5-yl)oxy)phenyl)-1,2,4a,5-tetrahydro-4H-[1,4]oxazino[4,3-d]pyrimido[4′,5′:5,6]pyrido[3,2-b][1,4]oxazin-11-amine] | 78.2 | > 10000
14 | Cc1cc(Nc2ncnc3ccc4c(c23)OC[C@H]2CNCCN42)ccc1Oc1ccn2ncnc2c1 [Compound 41, (R)—N-(4-([1,2,4]triazolo[1,5-a]pyridin-7-yloxy)-3-methylphenyl)-6,6a,7,8,9,10-hexahydropyrazino[1′,2′:4,5][1,4]oxazino[2,3-f]quinazolin-4-amine diformic acid] | 57.7 | > 10000
15 | Cc1cc(Nc2ncnc3ccc4c(c23)OC[C@H]2CNCCN42)ccc1Oc1ccc2c(c1)ncn2C [Compound 45, (R)—N-(3-methyl-4-((1-methyl-1H-benzo[d]imidazol-5-yl)oxy)phenyl)-6,6a,7,8,9,10-hexahydropyrazino[1′,2′:4,5][1,4]oxazino[2,3-f]quinazolin-4-amine] | 54 | > 10000
